SMILES strings stand for the structures.

From BindingDB's records for doi:10.1021/acs.jmedchem.8b01200 (Fuji Research Park, R&D Division, 2018) come the findings set out here.

A short description of this assay: Agonist activity at PPARgamma in human MKN45 cells assessed as cell differentiation after 5 days by Hoechst 33342 staining-based assay.

Regarding `CCCCCS(=O)(=O)NC(=O)c1ccc2nc(C)n(Cc3ccc(Cl)cc3Cl)c2c1` [ATx08-001], the EC50 was > 500 nM.

In general, EC50 refers to the concentration that produces a half-maximal response.
